Assay results taken from patent publication US6548079B1, “Moxifloxacin formulation containing common salt” (Bayer Aktiengesellschaft, priority 1999, dated 2003).
Counter-ions that a name gives are not always drawn.

How the values were obtained:
[1] = physchem; settings: water (aqueous solution without NaCl)
[2] = Solubility of moxifloxacin HCl in the presence of sodium chloride; type: physicochemical; settings: for Solubility moxifloxacin HCl: 5° C.; for solubility thermodynamic: sodium chloride solution, 5 °C, thermodynamic from solid
Experimental: For a dosage range of from 100 mg to 1000 mg at active compound concentrations of from 0.04% to 0.4% (w/v) of moxifloxacin hydrochloride, it is thus possible to adjust the osmotic pressure to physiological conditions by adding from 0.4% to 0.9% of sodium chloride. […] This ensures that, even on short-term cold storage, there is no precipitation of the active compound as a result of exceeding the saturation solubilities. [table]

solubility thermodynamic [1]: ~24 mg/mL | Solubility moxifloxacin HCl ([2]; NaCl 0.7 % (w/v)): 0.2 % (w/v) | Solubility moxifloxacin HCl ([2]; NaCl 0.8 % (w/v)): 0.2 % (w/v) | solubility thermodynamic ([2]; saline or isotonic, NaCl 0.1 % (w/v)): 11000 µg/mL | solubility thermodynamic ([2]; saline or isotonic, NaCl 0.2 % (w/v)): 7000 µg/mL | solubility thermodynamic ([2]; saline or isotonic, NaCl 0.3 % (w/v)): 5000 µg/mL | solubility thermodynamic ([2]; saline or isotonic, NaCl 0.4 % (w/v)): 4000 µg/mL | solubility thermodynamic ([2]; saline or isotonic, NaCl 0.5 % (w/v)): 3000 µg/mL | solubility thermodynamic ([2]; saline or isotonic, NaCl 0.6 % (w/v)): 2000 µg/mL | solubility thermodynamic ([2]; saline or isotonic, NaCl 0.9 % (w/v)): 1000 µg/mL | solubility thermodynamic ([2]; water, NaCl 0 % (w/v)): 18000 µg/mL
Compound: COc1c(N2C[C@@H]3CCCN[C@@H]3C2)c(F)cc2c(=O)c(C(=O)O)cn(C3CC3)c12 [moxifloxacin HCl, 1-cyclopropyl-7-([S,S]-2,8-diazabicyclo[4.3.0]non-8-yl)-6-fluoro-1,4-dihydro-8-methoxy-4-oxo-3-quinolonecarboxylic acid]
